# Test results as given in ChEMBL document CHEMBL1136642, “Substituted 4-methylquinolines as a new class of anti-tuberculosis agents” (Bioorg Med Chem Lett, 2003).
# Experiments:
# [1] = tested on: Mycobacterium tuberculosis; assay: Minimum inhibitory concentration required to inhibit 90% of the inoculum of tuberculosis H37Rv; assay type: functional
# [2] = tested on: Mycobacterium tuberculosis; assay: In vitro anti-mycobacterial activity against Mycobacterium tuberculosis H37Rv; assay type: functional; set-up: concentration or dose not given beside the values
# [3] = tested on: Mycobacterium tuberculosis; assay: Minimum inhibitory concentration against Mycobacterium tuberculosis strain, EMB-R; assay type: functional
# [4] = Ratio of minimum bactericidal concentration (MBC) against INH-R to that of minimum inhibitory concentration (MIC) to H37Rv in Alamar assay(Mycobacterium tuberculosis); assay type: functional
# [5] = tested on: Mycobacterium tuberculosis; assay: Minimum inhibitory concentration against Mycobacterium tuberculosis strain, INH-R; assay type: functional
# [6] = tested on: Mycobacterium tuberculosis; assay: Minimum inhibitory concentration against Mycobacterium tuberculosis strain H37Rv, using Alamar assay; assay type: functional
# Vero = assay: In vitro cytotoxicity was determined against VERO cells; assay type: functional, cell-based; settings: Chlorocebus sabaeus
# [7] = tested on: Mycobacterium tuberculosis; assay: Minimum inhibitory concentration against Mycobacterium tuberculosis strain, RMP-R; assay type: functional
# [8] = tested on: Mycobacterium tuberculosis; assay: Minimum bactericidal concentration (MBC) against INH-R; assay type: functional
# [9] = tested on: Mycobacterium tuberculosis; assay: Minimum bactericidal concentration (MBC) against H37Rv; assay type: functional
# [10] = tested on: Mycobacterium tuberculosis; assay: Minimum inhibitory concentration against Mycobacterium tuberculosis strain, CIP-R; assay type: functional
# [11] = Ratio of minimum bactericidal concentration (MBC) against RMP-R to that of minimum inhibitory concentration (MIC) to H37Rv in Alamar assay(Mycobacterium tuberculosis); assay type: functional
# [12] = tested on: Mycobacterium tuberculosis; assay: Minimum inhibitory concentration against Mycobacterium tuberculosis strain, Erdman; assay type: functional
# [13] = tested on: Mycobacterium tuberculosis; assay: Minimum bactericidal concentration (MBC) against RMP-R; assay type: functional
# [14] = Ratio of minimum bactericidal concentration (MBC) against H37Rv to that of minimum inhibitory concentration (MIC) to H37Rv in Alamar assay(Mycobacterium tuberculosis); assay type: functional
# [15] = tested on: Mycobacterium tuberculosis; assay: Minimum inhibitory concentration against Mycobacterium tuberculosis strain, KM-R; assay type: functional
Structure (SMILES),MIC [1] [µg/mL],Inhibition [2] [%],other results
CCCc1cc(C)c2ccccc2n1,> 6.25,30,
Cc1cc(C2CCCCC2)nc2c(C3CCCCC3)cccc12,> 6.25,53,
Cc1cc(C(C)C)nc2ccccc12,> 6.25,57,
CCCCCCc1cc(C)c2cccc(CCCCCC)c2n1,> 6.25,23,
CCCc1cc(C)c2cccc(CCC)c2n1,> 6.25,36,
CCCCCCc1cc(C)c2ccccc2n1,> 6.25,20,
CCCCc1cc(C)c2ccccc2n1,> 6.25,28,
CCCCc1cc(C)c2cccc(CCCC)c2n1,6.25,33,
Cc1cc(C(C)C)nc2c(C(C)C)cccc12,> 6.25,71,
CCCCCc1cc(C)c2cccc(CCCCC)c2n1,> 6.25,29,
Cc1cc(C23CC4CC(CC(C4)C2)C3)nc2ccccc12,> 69.2,76,
Cc1cc(C2CCC2)nc2c(C3CCC3)cccc12,12.5,100,
Cc1cc(C2CC2)nc2ccccc12,> 6.25,29,
Cc1cc(C2CCC2)nc2ccccc12,> 6.25,67,
Cc1cc(C2CCCCC2)nc2ccccc12,> 6.25,16,
CCCCCc1cc(C)c2ccccc2n1,> 6.25,24,
Cc1cc(C2CCCC2)nc2c(C3CCCC3)cccc12,> 6.25,100,MIC [3]: 12.5 µg/mL; Ratio [4]: 4 µg/mL; MIC [5]: 12.5 µg/mL; MIC [6]: 25 µg/mL; IC50 (Vero): > 50 µg/mL; MIC [7]: 12.5 µg/mL; MBC [8]: 100 µg/mL; MBC [9]: 50 µg/mL; MIC [10]: 12.5 µg/mL; Ratio [11]: 8 µg/mL; MIC [12]: 50 µg/mL; MBC [13]: 200 µg/mL; Ratio [14]: 2 µg/mL; MIC [15]: 25 µg/mL
Cc1cc(C2CCCC2)nc2ccccc12,> 6.25,74,
Cc1ccnc2ccccc12,> 6.25,0,
